# Data from patent US20150176022A1, “HERBICIDE-RESISTANT SUNFLOWER PLANTS, POLYNUCLEOTIDES ENCODING HERBICIDE=RESISTANT ACETO HYDROXY ACID SYNTHASE LARGE SUBUNIT PROTEINS, AND METHODS OF USE” (priority 2013, published 2015).
# Tests used:
# [1] = tested on: wild-type sunflower plants; assay: Greenhouse spray treatment with imazamox (FIG. 3, 4); format: in vivo, Helianthus annuus; details: wild-type control plants, imazamox at either 100 or 200 g ai/ha
# Description: (§1) The S4897 and IMISUN-1 sunflower plants were spray-treated with imazamox at rate of 200 g ai/ha. […] The photograph was taken a few days after the plants were spray treated.
# (§2) FIG. 4 is graphical illustration of herbicide injury in a greenhouse test following the spray treatment of IMISUN-1, wild-type, and S4897 sunflower plants with imazamox at either 100 (light columns) or 200 g ai/ha (dark columns). […] Herbicide injury was evaluated 17 days after the imazamox application.
# S4897 sunflower plants = assay: as above; format: in vivo, Helianthus annuus; details: S4897 versus IMISUN-1 and wild-type; imazamox 100 or 200 g ai/ha; evaluated 17 days after application
# Description: as §1, §2
# [2] = tested on: Clearfield-Sunflower variety A; assay: Greenhouse spray test, injury rating (Example 5); format: in vivo, Helianthus annuus; details: 14 DAT, scale 0=no injury to 9=dead plant
# Excerpt: (§3) Sunflower lines S4897, Clearfield® sunflower varieties A, B, C and a conventional non-Clearfield variety were sprayed with three rates of imazamox (Raptor™), 100, 200 and 300 gm ai/ha plus 0.5% Sun It II and two rates of imazapyr (Arsenal™) 160 and 360 gm ai/ha plus 0.5% Sun It II when the plants were at the two to three leaf stage. Ratings were taken at 14 days after application (DAT) for injury. Injury was rated on a scale from 0 to 9 where 0=no injury to 9=dead plant. Twelve plants were sprayed per herbicide/rate treatment. Statistical analysis was conducted with STATGRAPHICS Plus 5.0 by using ANOVA and LSD procedures.
# (§4) After plants were sprayed, it was realized that a height difference between S4897 and other sunflower varieties would have impacted the actual herbicide dose that was delivered. The spray boom height had been calibrated against S4897 and since the other varieties were taller and closer to the boom they would have received a greater dose of herbicide. Rates were recalibrated for the other varieties to determine the approximate dose they would have received. Assessments were made as presented in Table 2 since it was not possible to make a direct rate comparison due to the effect of the height. For example injury scores were compare for S4897 treated imazamox rate 100 gm ai/ha to the other varieties treated at 75 gm ai/ha. The treatment dose of 300 gm ai/ha for line S4897 was equivalent to the treatment of 200 gm ai/ha for the other varieties, which […].
# Sunflower line S4897 = assay: Greenhouse spray test, injury rating (Example 5); format: in vivo, Helianthus annuus; details: 14 DAT, scale 0=no injury to 9=dead plant
# Excerpt: as §3, §4
# [3] = tested on: Conventional non-Clearfield sunflower variety; assay: Greenhouse spray test, injury rating (Example 5); format: in vivo, Helianthus annuus; details: 14 DAT, scale 0=no injury to 9=dead plant
# Excerpt: as §3, §4
# [4] = tested on: Clearfield-Sunflower variety C; assay: Greenhouse spray test, injury rating (Example 5); format: in vivo, Helianthus annuus; details: 14 DAT, scale 0=no injury to 9=dead plant
# Excerpt: as §3, §4
# [5] = tested on: Clearfield-Sunflower variety B; assay: Greenhouse spray test, injury rating (Example 5); format: in vivo, Helianthus annuus; details: 14 DAT, scale 0=no injury to 9=dead plant
# Excerpt: as §3, §4
# AHAS = AHAS activity analysis, inhibition by herbicide (Example 5); format: biochemical, Helianthus annuus; details: AHAS of S4897 versus a Clearfield sunflower and a conventional non Clearfield variety; higher concentration of imazamox (FIG. 7)
# Description: AHAS activity analysis was also conducted by selecting actively growing young leaves from plants that were not sprayed with herbicide at approximately four weeks after planting.
# S4897 plants = assay: Field trials in Argentina, resistance to imazapic (Example 4); format: in vivo, Helianthus annuus; details: S4897 versus IMISUN-1 (Ala190-to-Val), single row plots, no data presented
# Description: In field trials in Argentina, S4897 plants were tested for resistance to imazapic. […] This trial had single row plots and was treated on a windy day, so the actual herbicide dose reaching the plants was likely less than was applied.
# [6] = Imazamox 300 gm ai/ha (dose received)
smiles,measurement,setting,value
COCc1cnc(C2=NC(C)(C(C)C)C(=O)N2)c(C(=O)O)c1 (stereo not shown) [imazamox],survival following spray treatment,[1],did not survive
same,herbicide injury (resistance or tolerance),S4897 sunflower plants,significantly greater resistance or tolerance
same,Injury,[2]; Imazamox 75 gm ai/ha,4.3 c
same,Injury,[2]; Imazamox 150 gm ai/ha,significantly injured and had stopped growing
same,Injury,"[2]; Imazamox 150 gm ai/ha, listed as Imazamox",4.6 c
same,Injury,[2]; [6],6.5 days
same,Injury,Sunflower line S4897; Imazamox 100 gm ai/ha,0.5 a
same,Injury,Sunflower line S4897; Imazamox 200 gm ai/ha,little to no injury
same,Injury,"Sunflower line S4897; Imazamox 200 gm ai/ha, listed as Imazamox",0.8 a
same,Injury,Sunflower line S4897; Imazamox 300 gm ai/ha,very little injury
same,Injury,"Sunflower line S4897; Imazamox 300 gm ai/ha, listed as Imazamox",0.8 a
same,Injury,[3]; Imazamox 75 gm ai/ha,7.2 days
same,Injury,[3]; Imazamox 150 gm ai/ha,8.2 days
same,Injury,[3]; [6],8.7 e
same,Injury,[4]; Imazamox 75 gm ai/ha,1.8 b
same,Injury,[4]; Imazamox 150 gm ai/ha,2.9 b
same,Injury,[4]; [6],4.6 b
same,Injury,[5]; Imazamox 75 gm ai/ha,1.9 b
same,Injury,[5]; Imazamox 150 gm ai/ha,4.8 c
same,Injury,[5]; [6],5.3 c
same,inhibition of AHAS activity,AHAS,less inhibition at the higher concentration of imazamox as compared to a Clearfield® sunflower and conventional non Clearfield variety
Cc1cnc(C2=NC(=O)C(C)(C(C)C)N2)c(C(=O)O)c1 (stereo not shown) [imazapic],resistance (tolerance) to imazapic,S4897 plants,clearly superior to the IMISUN-1
